BindingDB's records for PubMed 9353361 (National Institute of Diabetes and Digestive and Kidney …, 1997)
Several values for one entry are separate records, joined by “and”; a condition that tells them apart may be missing. Equal entries are not always repeated.

Target: Gamma-aminobutyric acid receptor subunit alpha-5 (Rattus norvegicus, UniProt P19969)
Sequence (P19969 whole entry): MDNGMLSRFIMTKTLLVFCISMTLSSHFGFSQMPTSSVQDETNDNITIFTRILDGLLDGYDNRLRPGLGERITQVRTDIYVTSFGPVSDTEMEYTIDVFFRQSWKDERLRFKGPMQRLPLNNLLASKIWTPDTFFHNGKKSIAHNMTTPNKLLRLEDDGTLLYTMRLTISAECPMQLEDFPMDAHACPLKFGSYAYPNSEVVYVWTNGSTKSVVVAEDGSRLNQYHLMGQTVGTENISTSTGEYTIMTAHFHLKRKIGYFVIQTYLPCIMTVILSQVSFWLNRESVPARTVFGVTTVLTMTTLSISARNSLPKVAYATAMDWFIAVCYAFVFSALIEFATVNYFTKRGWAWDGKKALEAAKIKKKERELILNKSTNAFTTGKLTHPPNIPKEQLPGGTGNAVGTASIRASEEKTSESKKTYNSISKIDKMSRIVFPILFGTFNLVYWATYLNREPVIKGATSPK

SMILES | Ki
CN1Cc2c(C(=O)OC(C)(C)C)ncn2-c2ccc(C#C[Si](C)(C)C)cc2C1=O | 1.03 nM and 0.83 nM
CN1C(=O)CN=C(c2ccccc2)c2cc(C#N)ccc21 | 34 nM
